Laboratory results taken from ChEMBL document CHEMBL1201862, “PubChem BioAssay data set” (2004).
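How tested: cells in 96-well plates exposed to compound for 48 hours at five concentrations. GI50 = concentration required for 50% inhibition of growth.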 The source made the active and inactive calls. Rule as the data show it: active = GI50 up to about 1.1 µM and inactive = higher.

Legend:
Experiment in all cases: growth of human tumour cells (NCI), 48 h
SF-539 = system: SF-539
NCI-H23 = system: NCI-H23
SR = system: SR
MCF7 = system: MCF7
MDA-MB-435 = system: MDA-MB-435
SK-MEL-2 = system: SK-MEL-2
SN12C = system: SN12C
SNB-19 = system: SNB-19
M14 = system: M14
HCT-15 = system: HCT-15
RPMI-8226 = system: RPMI-8226
DU-145 = system: DU-145
HT-29 = system: HT-29
786-0 = system: 786-0
UO-31 = system: UO-31
HOP-62 = system: HOP-62
COLO 205 = system: COLO 205
UACC-62 = system: UACC-62
HOP-92 = system: HOP-92
A498 = system: A498

SMILES | GI50 (SF-539) | GI50 (NCI-H23) | GI50 (SR) | GI50 (MCF7) | GI50 (MDA-MB-435) | GI50 (SK-MEL-2) | GI50 (SN12C) | GI50 (SNB-19) | GI50 (M14) | GI50 (HCT-15) [µM] | GI50 (RPMI-8226) | GI50 (DU-145) | GI50 (HT-29) | GI50 (786-0) | GI50 (UO-31) | GI50 (HOP-62) | GI50 (COLO 205) | GI50 (UACC-62) | GI50 (HOP-92) | GI50 (A498)
Cc1ccc(/C=C/c2n[nH]c(N/N=C/c3ccc4c(c3)OCO4)nc2=O)cc1 | 21 µM (inactive) | 15.4 µM (inactive) | 11.2 µM (inactive) | 23.3 µM (inactive) | 33.4 µM (inactive) | 30.8 µM (inactive) | 18.5 µM (inactive) | 18.5 µM (inactive) | 36.6 µM (inactive) | 44.9 | 67.8 µM (inactive) | 19.4 µM (inactive) | 24 µM (inactive) | 14.4 µM (inactive) | 88.7 µM (inactive) | 19 µM (inactive) | 74.3 µM (inactive) | – | – | –
CNC(=O)c1ccc(C(=O)NCCCCCN(O)C(=O)CCC(=O)NCCCCCN(O)C(=O)CCC(=O)NCCCCCN(O)C(C)=O)c(O)c1O | 29 µM (inactive) | 65.9 µM (inactive) | – | 48.2 µM (inactive) | > 100 µM (inactive) | 95.7 µM (inactive) | 94.6 µM (inactive) | 62.7 µM (inactive) | 59.8 µM (inactive) | 21.9 | 38.5 µM (inactive) | 55.1 µM (inactive) | 38.9 µM (inactive) | 69.3 µM (inactive) | 24.3 µM (inactive) | 21.4 µM (inactive) | 27.1 µM (inactive) | 36.1 µM (inactive) | 37.4 µM (inactive) | > 100 µM (inactive)
CC12OC(=O)[C@@]3(O)CCC4C(C[C@H]5O[C@]56CC=CC(=O)[C@]46C)C45OC[C@H]6C(=O)O[C@@H]1C[C@@]6(C)[C@H](C4=O)C23O5 (stereo partly drawn) | 0.252 µM (active) | 0.746 µM (active) | 0.392 µM (active) | 0.578 µM (active) | 1.42 µM (inactive) | 3.01 µM (inactive) | 0.953 µM (active) | 3.85 µM (inactive) | 1.57 µM (inactive) | 0.977 | 0.308 µM (active) | 2.56 µM (inactive) | 2.11 µM (inactive) | 0.659 µM (active) | – | 2.57 µM (inactive) | 0.601 µM (active) | 0.971 µM (active) | 2.11 µM (inactive) | –
COc1ccccc1C1(c2c(OC)c(=O)c2=O)SCCCS1 | > 100 µM (inactive) | 48.3 µM (inactive) | – | > 100 µM (inactive) | > 100 µM (inactive) | > 100 µM (inactive) | 36.6 µM (inactive) | 74 µM (inactive) | > 100 µM (inactive) | 61 | 32 µM (inactive) | > 100 µM (inactive) | > 100 µM (inactive) | > 100 µM (inactive) | > 100 µM (inactive) | > 100 µM (inactive) | > 100 µM (inactive) | > 100 µM (inactive) | 19.2 µM (inactive) | 49 µM (inactive)
CC1(C)[C@@H]2CC[C@]1(C)[C@H](OC(=O)/C=C/c1ccccc1)C2 | 20.7 µM (inactive) | 21.7 µM (inactive) | – | 16.7 µM (inactive) | 26 µM (inactive) | 17.4 µM (inactive) | 18.8 µM (inactive) | 19.8 µM (inactive) | 29.9 µM (inactive) | 17.6 | – | 19.4 µM (inactive) | 16.6 µM (inactive) | 18.1 µM (inactive) | 19.2 µM (inactive) | 30.2 µM (inactive) | 17.1 µM (inactive) | 21.2 µM (inactive) | – | 18.3 µM (inactive)
C#C[C@]1(O)CC[C@H]2[C@@H]3CCC4=C/C(=N/NC(=O)c5cccc6c(=O)c7ccccc7[nH]c56)CCC4[C@H]3CC[C@@]21C (stereo partly drawn) | 34.7 µM (inactive) | 27.1 µM (inactive) | 28.4 µM (inactive) | 43.4 µM (inactive) | 38.7 µM (inactive) | 33 µM (inactive) | > 100 µM (inactive) | 86.3 µM (inactive) | 59.8 µM (inactive) | 73.8 | 28.8 µM (inactive) | > 100 µM (inactive) | 30.3 µM (inactive) | 35.6 µM (inactive) | 20.5 µM (inactive) | > 100 µM (inactive) | 70 µM (inactive) | 30.8 µM (inactive) | > 100 µM (inactive) | –
COc1ccc(/N=N/c2c(C)c(C#N)c(=S)n(C3OC(CO)C(O)C(O)C3O)c2C)cc1 (stereo not drawn) | 48.3 µM (inactive) | 35.6 µM (inactive) | 23.4 µM (inactive) | 33 µM (inactive) | 38.8 µM (inactive) | 71.3 µM (inactive) | – | 38.3 µM (inactive) | 26.7 µM (inactive) | 53.1 | 39.2 µM (inactive) | 44.7 µM (inactive) | 37.9 µM (inactive) | 44.2 µM (inactive) | 41.9 µM (inactive) | 42.3 µM (inactive) | 58.3 µM (inactive) | 30.4 µM (inactive) | 16.9 µM (inactive) | –
O=c1cc(-c2ccncc2)[nH]c2cc3c(cc12)OCO3 | > 100 µM (inactive) | > 100 µM (inactive) | – | > 100 µM (inactive) | > 100 µM (inactive) | > 100 µM (inactive) | > 100 µM (inactive) | > 100 µM (inactive) | > 100 µM (inactive) | > 100 | > 100 µM (inactive) | > 100 µM (inactive) | > 100 µM (inactive) | 64.6 µM (inactive) | > 100 µM (inactive) | > 100 µM (inactive) | > 100 µM (inactive) | > 100 µM (inactive) | > 100 µM (inactive) | > 100 µM (inactive)
O=[N+]([O-])c1cc(C(F)(F)F)ccc1S(=O)(=O)N[C@@H]1CCCC[C@H]1NS(=O)(=O)c1ccc(C(F)(F)F)cc1[N+](=O)[O-] | 1.81 µM (inactive) | 2.28 µM (inactive) | – | 1.72 µM (inactive) | 2.15 µM (inactive) | 2.82 µM (inactive) | 3.45 µM (inactive) | 5.68 µM (inactive) | 2.75 µM (inactive) | 2.69 | – | 4.22 µM (inactive) | 3.37 µM (inactive) | 3.47 µM (inactive) | 3.56 µM (inactive) | 7.1 µM (inactive) | 2.78 µM (inactive) | 3.81 µM (inactive) | 1.98 µM (inactive) | 5.43 µM (inactive)
CCOC(=O)/C=C(\C(=O)OCC)n1ccc(N)nc1=O | > 100 µM (inactive) | > 100 µM (inactive) | 87.7 µM (inactive) | > 100 µM (inactive) | 94.6 µM (inactive) | > 100 µM (inactive) | > 100 µM (inactive) | > 100 µM (inactive) | > 100 µM (inactive) | > 100 | > 100 µM (inactive) | > 100 µM (inactive) | 52.2 µM (inactive) | > 100 µM (inactive) | > 100 µM (inactive) | > 100 µM (inactive) | > 100 µM (inactive) | > 100 µM (inactive) | 57.4 µM (inactive) | –
Cc1nn(-c2ccccc2)c(C)c1/C=N/N=C1\S/C(=C\c2ccc(Cl)cc2)C(=O)N1c1ccccc1 | > 100 µM (inactive) | 7.38 µM (inactive) | – | 17.3 µM (inactive) | 32 µM (inactive) | > 100 µM (inactive) | > 100 µM (inactive) | 48.8 µM (inactive) | > 100 µM (inactive) | 9.89 | 26.4 µM (inactive) | > 100 µM (inactive) | 16.6 µM (inactive) | 3.13 µM (inactive) | > 100 µM (inactive) | 20.1 µM (inactive) | > 100 µM (inactive) | 16.8 µM (inactive) | 91 µM (inactive) | > 100 µM (inactive)
CCCn1c(=O)c(N2CCN(c3ccccc3)CC2)nc2sc3ccccc3c21 | > 100 µM (inactive) | > 100 µM (inactive) | – | > 100 µM (inactive) | > 100 µM (inactive) | > 100 µM (inactive) | > 100 µM (inactive) | > 100 µM (inactive) | > 100 µM (inactive) | > 100 | – | > 100 µM (inactive) | > 100 µM (inactive) | > 100 µM (inactive) | > 100 µM (inactive) | > 100 µM (inactive) | > 100 µM (inactive) | > 100 µM (inactive) | > 100 µM (inactive) | > 100 µM (inactive)
COc1c2cc([N+](=O)[O-])cc1CN(C(=O)C(F)(F)F)CCOCCN(C(=O)C(F)(F)F)C2 | > 100 µM (inactive) | > 100 µM (inactive) | – | > 100 µM (inactive) | > 100 µM (inactive) | > 100 µM (inactive) | > 100 µM (inactive) | > 100 µM (inactive) | > 100 µM (inactive) | > 100 | – | > 100 µM (inactive) | > 100 µM (inactive) | > 100 µM (inactive) | > 100 µM (inactive) | > 100 µM (inactive) | > 100 µM (inactive) | > 100 µM (inactive) | > 100 µM (inactive) | > 100 µM (inactive)
COc1ccc(N[C@H]([C@@H](c2ccccc2)[S+]([O-])c2ccc(C)cc2)C(F)(F)F)cc1 (stereo partly drawn) | 22.5 µM (inactive) | 41.5 µM (inactive) | > 100 µM (inactive) | 38.9 µM (inactive) | 41.1 µM (inactive) | 40 µM (inactive) | 71.8 µM (inactive) | 33.1 µM (inactive) | 45.6 µM (inactive) | 30 | – | 62.8 µM (inactive) | 31.8 µM (inactive) | 39 µM (inactive) | 59.8 µM (inactive) | – | 37.2 µM (inactive) | 29.1 µM (inactive) | 34 µM (inactive) | –
Cc1ccc([C@@H]2[C@@H](C(=O)c3ccccn3)[C@H](c3ccc(C)cc3)C[C@](O)(c3ccccn3)[C@H]2C(=O)c2ccccn2)cc1 | 2.08 µM (inactive) | 18.8 µM (inactive) | 0.495 µM (active) | 4.86 µM (inactive) | 8.22 µM (inactive) | 3.46 µM (inactive) | 3.18 µM (inactive) | 3.04 µM (inactive) | 1.31 µM (inactive) | 1.77 | – | 2.17 µM (inactive) | 2.97 µM (inactive) | 1.81 µM (inactive) | 2.32 µM (inactive) | 5.73 µM (inactive) | 5.24 µM (inactive) | 3.16 µM (inactive) | 4.61 µM (inactive) | –
